From PubChem BioAssay (NCI) come the findings set out here.

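Each compound was tested at five concentrations against cells in 96-well plates for 48 hours. TGI: total growth inhibition.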

Some test systems named below: UACC-257 melanoma; IGROV1 ovarian; 786-0 renal; SF-539 CNS; HCT-116 colon; HCC-2998 colon; OVCAR-3 ovarian; HS 578T breast; U251 CNS; PC-3 prostate; HCT-15 colon; SK-OV-3 ovarian.
What all share (experiment): DTP human tumour cell line panel, 48 h

One may read the TGI as the concentration at which net growth stops. Read a low TGI as more potent growth arrest. With `O=C1CCc2ccc(O)c(c2)Oc2ccc(cc2)C(Sc2ccccc2)CCO1` (stereo unspecified), the TGI amounted to 32.6 µM in the assay on UACC-257 melanoma; 27.6 µM with IGROV1 ovarian; 29.6 µM in the assay on 786-0 renal; 31.4 µM with SF-539 CNS; 29.8 µM in the assay with HCT-116 colon; 32.9 µM in the assay with HCC-2998 colon. For the same molecule, the TGI with OVCAR-3 ovarian is 29.6 µM; with HS 578T breast, 36.2 µM; in the assay on U251 CNS, 33 µM; with PC-3 prostate, 35.1 µM; in the assay on HCT-15 colon it was 29.9 µM; in the assay with SK-OV-3 ovarian it was greater than 100 µM.

With `COc1ccc2c(c1)CCCN1CCc3ccccc3C21` (stereo unspecified), the total growth inhibition concentration (TGI) in the assay with UACC-257 melanoma was greater than 100 µM; in the assay on IGROV1 ovarian it was greater than 100 µM; in the assay with 786-0 renal, 69.9 µM; in the assay on SF-539 CNS, 75.8 µM; in the assay on HCT-116 colon, 72.1 µM; in the assay with HCC-2998 colon it was greater than 100 µM. Also, the TGI in the assay on OVCAR-3 ovarian was greater than 100 µM; in the assay on HS 578T breast, 94 µM; in the assay on U251 CNS, 95.4 µM; in the assay with PC-3 prostate it was greater than 100 µM; with HCT-15 colon it was greater than 100 µM; in the assay with SK-OV-3 ovarian, greater than 100 µM.

With `CC(=O)NCC1OC2COC(c3ccccc3)OC2C(NC(=O)c2ccccc2)C1OC(=O)c1ccccc1` (stereo unspecified), the total growth inhibition concentration (TGI) with UACC-257 melanoma, with 786-0 renal, in the assay on SF-539 CNS, with HCT-116 colon, in the assay on HCC-2998 colon and with OVCAR-3 ovarian was greater than 100 µM in each case. Also, the concentration for total growth inhibition (TGI) in the assay with HS 578T breast, in the assay on U251 CNS, in the assay with PC-3 prostate, in the assay on HCT-15 colon and in the assay with SK-OV-3 ovarian was greater than 100 µM in each case.

As to `CC(C)(Cl)C(Br)CCC(Br)(CCl)C(Cl)CBr` (stereo unspecified), the TGI with UACC-257 melanoma, with IGROV1 ovarian, with 786-0 renal, in the assay with SF-539 CNS, in the assay on HCC-2998 colon and in the assay with OVCAR-3 ovarian was greater than 10 µM throughout. In addition, the concentration for total growth inhibition (TGI) in the assay with HS 578T breast, in the assay with U251 CNS, with PC-3 prostate, in the assay with HCT-15 colon and in the assay on SK-OV-3 ovarian was greater than 10 µM each time.

Turning to `Cc1cc2nc3ccccc3n2c2nc(N)ccc12`, the concentration for total growth inhibition (TGI) in the assay with UACC-257 melanoma is greater than 100 µM; in the assay on IGROV1 ovarian, greater than 100 µM; in the assay on 786-0 renal, greater than 100 µM; in the assay with SF-539 CNS, 51.6 µM; in the assay with HCT-116 colon it was greater than 100 µM; with HCC-2998 colon, greater than 100 µM. Moreover, the concentration for total growth inhibition (TGI) in the assay with OVCAR-3 ovarian was greater than 100 µM; in the assay on HS 578T breast, greater than 100 µM; in the assay with PC-3 prostate, greater than 100 µM; with HCT-15 colon, 93.1 µM.

Regarding `CN(CCCNC(=O)c1cn(C)c2c1Cc1ccccc1-2)CCCNC(=O)c1cn(C)c2c1Cc1ccccc1-2`, the TGI worked out at 18.9 µM in the assay with UACC-257 melanoma; 21.8 µM in the assay on IGROV1 ovarian; 17.9 µM with 786-0 renal; 31.8 µM in the assay on SF-539 CNS; 22.2 µM in the assay on HCT-116 colon; 31.3 µM with OVCAR-3 ovarian. The total growth inhibition concentration (TGI) with HS 578T breast came out at 25.2 µM; with U251 CNS it was 20.2 µM; in the assay with PC-3 prostate, 22.7 µM; in the assay with HCT-15 colon, 25.2 µM; in the assay on SK-OV-3 ovarian, 32.6 µM.

For `Cc1cc(=O)oc2cc(OCC(O)COC(C)C)ccc12` (stereo unspecified), the concentration for total growth inhibition (TGI) in the assay with UACC-257 melanoma, in the assay on IGROV1 ovarian, in the assay with 786-0 renal, with HCT-116 colon, in the assay on HCC-2998 colon and in the assay on OVCAR-3 ovarian was greater than 100 µM in each case. The TGI in the assay with HS 578T breast, in the assay with U251 CNS, in the assay with PC-3 prostate, in the assay with HCT-15 colon and in the assay on SK-OV-3 ovarian was greater than 100 µM in each case.

For the molecule `C=CC1CN(C(=O)OCC)N(C(=O)OCC)C1CCc1ccccc1` (stereo unspecified), the TGI in the assay with UACC-257 melanoma, in the assay on IGROV1 ovarian, in the assay with 786-0 renal, with HCT-116 colon, in the assay with HCC-2998 colon and in the assay on HS 578T breast was greater than 100 µM throughout. In addition, the total growth inhibition concentration (TGI) in the assay on U251 CNS, with PC-3 prostate, in the assay with HCT-15 colon and in the assay on SK-OV-3 ovarian was greater than 100 µM each time.

Consider `CCOC(=O)c1nc2cc(C(F)(F)F)ccc2nc1Nc1ccc(C(=O)OC)s1`, for which the TGI in the assay with UACC-257 melanoma is greater than 100 µM; with IGROV1 ovarian, greater than 100 µM; with 786-0 renal it was 84.8 µM; in the assay on HCT-116 colon, greater than 100 µM; with HCC-2998 colon, greater than 100 µM; with OVCAR-3 ovarian, 48.7 µM. The TGI with HS 578T breast, with U251 CNS, with PC-3 prostate, with HCT-15 colon and with SK-OV-3 ovarian was greater than 100 µM throughout.

Consider `CCOC(=O)c1nc2ccc(C(F)(F)F)cc2nc1NCc1ccc(OC)c(OC)c1`, for which the concentration for total growth inhibition (TGI) in the assay on UACC-257 melanoma, with IGROV1 ovarian, with 786-0 renal, with SF-539 CNS, with HCT-116 colon and with OVCAR-3 ovarian was greater than 100 µM each time. Moreover, the TGI in the assay with HS 578T breast, in the assay on U251 CNS, in the assay on PC-3 prostate, with HCT-15 colon and in the assay on SK-OV-3 ovarian was greater than 100 µM each time.

Take `COc1cccc(C2SC(N)=Nc3c2c(C)nn3C(=O)Cc2ccccc2)c1` (stereo unspecified): the total growth inhibition concentration (TGI) with UACC-257 melanoma, in the assay on IGROV1 ovarian, in the assay with 786-0 renal, in the assay on SF-539 CNS, in the assay on HCT-116 colon and with HCC-2998 colon was greater than 100 µM each time. Besides, the TGI in the assay with HS 578T breast, in the assay on PC-3 prostate, in the assay with HCT-15 colon and with SK-OV-3 ovarian was greater than 100 µM throughout.

Turning to `CSc1ccc(Nc2cc(=O)[nH]c(=O)[nH]2)cc1`, the concentration for total growth inhibition (TGI) with UACC-257 melanoma, in the assay with 786-0 renal, in the assay on SF-539 CNS, in the assay with HCT-116 colon, in the assay on HCC-2998 colon and in the assay with OVCAR-3 ovarian was greater than 100 µM throughout. Also, the TGI with HS 578T breast, with U251 CNS, with PC-3 prostate, in the assay with HCT-15 colon and in the assay with SK-OV-3 ovarian was greater than 100 µM in each case.
